Entries after “also recorded” stand apart in the source; their conditions may differ.
Assays:
[1] = system: sulfate reducing bacteria (SRB); assay: Biocidal effectiveness on sulfate reducing bacteria in spiked frac pond water, serial dilution counts over 180 days with challenges; format: cell-based; conditions: for control of SRB in frac pond water (summary in words): up to 180 days contact time, challenges at 14, 28 and 129 days
Procedure: (§1) In this example, the biocidal effectiveness on sulfate reducing bacteria (SRB) and acid producing bacteria (AB) for biocide formulations containing CB Thione and WB Thione to Glut and THPS was examined.
(§2) A one gallon sample was separated from a five gallon sample of frac pond water for these studies. The frac pond water sample included SRB and AB. Ten mL of a 10^9 cfu/mL inoculum of SRB grown in anaerobic API broth containing an O2 scavenger and 10 mL of a 10^9 cfu/mL inoculum of AB grown in anaerobic phenol red (anPR) broth containing an O2 scavenger were added to the one gallon frac pond water sample, mixed well and allowed to incubate for a period of time sufficient to achieve a desired number of SRB and AB. All broth media for inoculum and serial dilution counts in this study was made at 4% salinity to match the salinity of the original frac pond water measured by total dissolved solids testing. To increase nutrient value and to emulate on-site friction reducing additives, a 30 weight % acrylic acid, 70% acrylamide copolymer was added to the inoculated gallon of frac pond water sample at 300 ppm and then referred to as the spiked frac pond water sample. The spiked sample was then divided into 99.0 g aliquots for testing the effect of various biocides at various concentrations on the SRB and AB over a 180 day contact time. One spiked aliquot would serve as the control sample to which no biocide would be added. Challenges were made to all aliquots using 0.5 mL of 10^8 SRB and 0.5 mL, of 10^8 AB at 14, 28, and 129 days contact time.
(§3) The biocides included a 20% water based Thione (WB Thione), a 24% caustic based Thione (CB Thione), a 25% Glut, and a 35% THPS. Stock biocide solutions of various concentrations were made from these biocides as described below.
(§4) The WB Thione stock solutions were prepared by adding 3.0 g of the biocide to 17.0 g of sterile distilled water to form an intermediate solution, followed by combining each intermediate solution with water in the accounts shown in Table 1 below to make the descending concentrations as shown in Table 1.
(§5) The CB Thione stock solutions were prepared by adding 3.0 g of the biocide to 17.0 g of sterile distilled water to form an intermediate solution, followed by combining each intermediate solution with water in the amounts shown in Table 2 below to make the descending concentrations as shown in Table 2.
(§6) The Glut stock solutions were prepared by adding 1.0 g biocide to 19.0 g of sterile distilled water to form an intermediate solution, followed by combining each intermediate solution with water in the amounts shown in Table 3 below to make the descending concentrations as shown in Table 3.
(§7) The THPS stock solutions were prepared by adding 1.0 g of the biocide to 19.0 g of sterile distilled water to form an intermediate solution, followed by combining each intermediate solution with water in the amounts shown in Table 4 below to make the descending concentrations as shown in Table 4.
(§8) Next, 1 g of each biocide stock solution was added to the appropriately labeled 99.0 g aliquot. Also, 1.0 g of sterile water was added to the control aliquot. The concentrations of the biocides present in each aliquot are provided below in Table 5.
(§9) The aliquots were then incubated at room temperature in the dark for the entire study, i.e., 6 months. […] Using sterile syringes, this testing was performed by serial diluting the aliquots into sealed 9.0 mL anaerobic API broth and anaerobic PR broth bottles, both media containing an O2 scavenger, in the appropriate labeled set of SRB bottles (6 for each aliquot) mid AB bottles (6 for each aliquot) until a color change occurred, indicating the log quantity of organisms present in each aliquot.

[2] = system: acid producing bacteria (AB); assay: Biocidal effectiveness on acid producing bacteria in spiked frac pond water, serial dilution counts over 180 days with challenges; format: cell-based; conditions: for control of AB in frac pond water (summary in words): up to 180 days contact time, challenges at 14, 28 and 129 days
Procedure: as §1, §2, §3, §4, §5, §6, §7, §8, §9

[3] = Effect of biocide on the oxygen scavenger (oxygen reduction potential); format: physicochemical; conditions: 500 ppm biocide; 120 ppm SMBS; pH 6.4; FIG. 5
Procedure: In the following examples, an in-house constructed Inversion Loop was modified with a Grace M3500 viscometer for periodically measuring fluid viscosity as a function of time. The ORP apparatus included a HACH sensION pH meter with a combination ORP electrode. In Example 7, a friction loop apparatus was employed
To a beaker containing 500 milliliters of deionized water, a 120 ppm dose of sodium metabisulfite (SMBS) was added and the pH and oxygen reduction potential (ORP) were recorded. Once stabilized, phosphate buffer was added to increase the pH to 6.4 and the ORP recorded. Finally, the particular biocide tested was added at a concentration of 500 ppm. The ORP was recorded initially and after a period of 10 minutes.

[4] = 500 ppm as is (Glut, THPS), 7 Days
[5] = 500 ppm as is (Glut, THPS), 14 Days
[6] = 500 ppm as is (Glut, THPS), 21 Days
[7] = 500 ppm as is (Glut, THPS), 28 Days
[8] = 500 ppm as is (Glut, THPS), 35 Days
[9] = 500 ppm as is (Glut, THPS), 42 Days
[10] = 500 ppm as is (Glut, THPS), 58 Days
[11] = 500 ppm as is (Glut, THPS), 90 Days

## O=CCCCC=O [Glut, glutaraldehyde]
[1]; 50 ppm as is, 7 Days
  Log 10 Anaerobic Sulfate Reducing Bacteria/mL: 0 Log 10 Bacteria/mL
[1]; 50 ppm as is, 14 Days
  Log 10 Anaerobic Sulfate Reducing Bacteria/mL: 0 Log 10 Bacteria/mL
[1]; 50 ppm as is, 21 Days
  Log 10 Anaerobic Sulfate Reducing Bacteria/mL: 0 Log 10 Bacteria/mL
[1]; 50 ppm as is, 28 Days
  Log 10 Anaerobic Sulfate Reducing Bacteria/mL: 0 Log 10 Bacteria/mL
[1]; 50 ppm as is, 35 Days
  Log 10 Anaerobic Sulfate Reducing Bacteria/mL: ≧3 Log 10 Bacteria/mL
[1]; 50 ppm as is, 42 Days
  Log 10 Anaerobic Sulfate Reducing Bacteria/mL: ≧6 Log 10 Bacteria/mL
[1]; 50 ppm as is, 58 Days
  Log 10 Anaerobic Sulfate Reducing Bacteria/mL: ≧6 Log 10 Bacteria/mL
[1]; 50 ppm as is, 90 Days
  Log 10 Anaerobic Sulfate Reducing Bacteria/mL: ≧5 Log 10 Bacteria/mL
[1]; 100 ppm as is, 7 Days
  Log 10 Anaerobic Sulfate Reducing Bacteria/mL: 0 Log 10 Bacteria/mL
[1]; 100 ppm as is, 14 Days
  Log 10 Anaerobic Sulfate Reducing Bacteria/mL: 0 Log 10 Bacteria/mL
[1]; 100 ppm as is, 21 Days
  Log 10 Anaerobic Sulfate Reducing Bacteria/mL: 0 Log 10 Bacteria/mL
[1]; 100 ppm as is, 28 Days
  Log 10 Anaerobic Sulfate Reducing Bacteria/mL: 0 Log 10 Bacteria/mL
[1]; 100 ppm as is, 35 Days
  Log 10 Anaerobic Sulfate Reducing Bacteria/mL: ≧3 Log 10 Bacteria/mL
[1]; 100 ppm as is, 42 Days
  Log 10 Anaerobic Sulfate Reducing Bacteria/mL: ≧6 Log 10 Bacteria/mL
[1]; 100 ppm as is, 58 Days
  Log 10 Anaerobic Sulfate Reducing Bacteria/mL: ≧5 Log 10 Bacteria/mL
[1]; 100 ppm as is, 90 Days
  Log 10 Anaerobic Sulfate Reducing Bacteria/mL: ≧5 Log 10 Bacteria/mL
[1]; 200 ppm as is, 7 Days
  Log 10 Anaerobic Sulfate Reducing Bacteria/mL: 0 Log 10 Bacteria/mL
[1]; 200 ppm as is, 14 Days
  Log 10 Anaerobic Sulfate Reducing Bacteria/mL: 0 Log 10 Bacteria/mL
[1]; 200 ppm as is, 21 Days
  Log 10 Anaerobic Sulfate Reducing Bacteria/mL: 0 Log 10 Bacteria/mL
[1]; 200 ppm as is, 28 Days
  Log 10 Anaerobic Sulfate Reducing Bacteria/mL: 0 Log 10 Bacteria/mL
[1]; 200 ppm as is, 35 Days
  Log 10 Anaerobic Sulfate Reducing Bacteria/mL: ≧3 Log 10 Bacteria/mL
[1]; 200 ppm as is, 42 Days
  Log 10 Anaerobic Sulfate Reducing Bacteria/mL: ≧6 Log 10 Bacteria/mL
[1]; 200 ppm as is, 58 Days
  Log 10 Anaerobic Sulfate Reducing Bacteria/mL: ≧6 Log 10 Bacteria/mL
[1]; 200 ppm as is, 90 Days
  Log 10 Anaerobic Sulfate Reducing Bacteria/mL: ≧6 Log 10 Bacteria/mL
[1]; [4]
  Log 10 Anaerobic Sulfate Reducing Bacteria/mL: 0 Log 10 Bacteria/mL
[1]; [5]
  Log 10 Anaerobic Sulfate Reducing Bacteria/mL: 0 Log 10 Bacteria/mL
[1]; [6]
  Log 10 Anaerobic Sulfate Reducing Bacteria/mL: 0 Log 10 Bacteria/mL
[1]; [7]
  Log 10 Anaerobic Sulfate Reducing Bacteria/mL: 0 Log 10 Bacteria/mL
[1]; [8]
  Log 10 Anaerobic Sulfate Reducing Bacteria/mL: ≧3 Log 10 Bacteria/mL
[1]; [9]
  Log 10 Anaerobic Sulfate Reducing Bacteria/mL: 5 Log 10 Bacteria/mL
[1]; [10]
  Log 10 Anaerobic Sulfate Reducing Bacteria/mL: ≧6 Log 10 Bacteria/mL
[1]; [11]
  Log 10 Anaerobic Sulfate Reducing Bacteria/mL: ≧6 Log 10 Bacteria/mL
[1]
  control of SRB in frac pond water (summary in words): lost all control of SRB and AB after the 2nd challenge on day 28; also recorded: failed completely at all concentrations after challenging twice at 14 and 28 days contact time
[2]; 50 ppm as is, 7 Days
  Log 10 Anaerobic Acid Producing Bacteria/mL: 0 Log 10 Bacteria/mL
[2]; 50 ppm as is, 14 Days
  Log 10 Anaerobic Acid Producing Bacteria/mL: 0 Log 10 Bacteria/mL
[2]; 50 ppm as is, 21 Days
  Log 10 Anaerobic Acid Producing Bacteria/mL: 1 Log 10 Bacteria/mL
[2]; 50 ppm as is, 28 Days
  Log 10 Anaerobic Acid Producing Bacteria/mL: 0 Log 10 Bacteria/mL
[2]; 50 ppm as is, 35 Days
  Log 10 Anaerobic Acid Producing Bacteria/mL: ≧3 Log 10 Bacteria/mL
[2]; 50 ppm as is, 42 Days
  Log 10 Anaerobic Acid Producing Bacteria/mL: ≧6 Log 10 Bacteria/mL
[2]; 50 ppm as is, 58 Days
  Log 10 Anaerobic Acid Producing Bacteria/mL: ≧6 Log 10 Bacteria/mL
[2]; 50 ppm as is, 90 Days
  Log 10 Anaerobic Acid Producing Bacteria/mL: ≧5 Log 10 Bacteria/mL
[2]; 100 ppm as is, 7 Days
  Log 10 Anaerobic Acid Producing Bacteria/mL: 0 Log 10 Bacteria/mL
[2]; 100 ppm as is, 14 Days
  Log 10 Anaerobic Acid Producing Bacteria/mL: 0 Log 10 Bacteria/mL
[2]; 100 ppm as is, 21 Days
  Log 10 Anaerobic Acid Producing Bacteria/mL: 0 Log 10 Bacteria/mL
[2]; 100 ppm as is, 28 Days
  Log 10 Anaerobic Acid Producing Bacteria/mL: 0 Log 10 Bacteria/mL
[2]; 100 ppm as is, 35 Days
  Log 10 Anaerobic Acid Producing Bacteria/mL: ≧3 Log 10 Bacteria/mL
[2]; 100 ppm as is, 42 Days
  Log 10 Anaerobic Acid Producing Bacteria/mL: ≧6 Log 10 Bacteria/mL
[2]; 100 ppm as is, 58 Days
  Log 10 Anaerobic Acid Producing Bacteria/mL: ≧6 Log 10 Bacteria/mL
[2]; 100 ppm as is, 90 Days
  Log 10 Anaerobic Acid Producing Bacteria/mL: ≧6 Log 10 Bacteria/mL
[2]; 200 ppm as is, 7 Days
  Log 10 Anaerobic Acid Producing Bacteria/mL: 0 Log 10 Bacteria/mL
[2]; 200 ppm as is, 14 Days
  Log 10 Anaerobic Acid Producing Bacteria/mL: 1 Log 10 Bacteria/mL
[2]; 200 ppm as is, 21 Days
  Log 10 Anaerobic Acid Producing Bacteria/mL: 0 Log 10 Bacteria/mL
[2]; 200 ppm as is, 28 Days
  Log 10 Anaerobic Acid Producing Bacteria/mL: 0 Log 10 Bacteria/mL
[2]; 200 ppm as is, 35 Days
  Log 10 Anaerobic Acid Producing Bacteria/mL: ≧3 Log 10 Bacteria/mL
[2]; 200 ppm as is, 42 Days
  Log 10 Anaerobic Acid Producing Bacteria/mL: ≧5 Log 10 Bacteria/mL
[2]; 200 ppm as is, 58 Days
  Log 10 Anaerobic Acid Producing Bacteria/mL: ≧6 Log 10 Bacteria/mL
[2]; 200 ppm as is, 90 Days
  Log 10 Anaerobic Acid Producing Bacteria/mL: ≧6 Log 10 Bacteria/mL
[2]; [4]
  Log 10 Anaerobic Acid Producing Bacteria/mL: 0 Log 10 Bacteria/mL
[2]; [5]
  Log 10 Anaerobic Acid Producing Bacteria/mL: 0 Log 10 Bacteria/mL
[2]; [6]
  Log 10 Anaerobic Acid Producing Bacteria/mL: 0 Log 10 Bacteria/mL
[2]; [7]
  Log 10 Anaerobic Acid Producing Bacteria/mL: 0 Log 10 Bacteria/mL
[2]; [8]
  Log 10 Anaerobic Acid Producing Bacteria/mL: ≧3 Log 10 Bacteria/mL
[2]; [9]
  Log 10 Anaerobic Acid Producing Bacteria/mL: 4 Log 10 Bacteria/mL
[2]; [10]
  Log 10 Anaerobic Acid Producing Bacteria/mL: ≧6 Log 10 Bacteria/mL
[2]; [11]
  Log 10 Anaerobic Acid Producing Bacteria/mL: ≧6 Log 10 Bacteria/mL
[2]
  control of AB in frac pond water (summary in words): lost all control of SRB and AB after the 2nd challenge on day 28
[3]
  ORP after 10 minutes of residence time: increases nearly to the level of the DI H2O alone
  ORP response upon initial addition of biocide: does not significantly impact ORP

## CN1CSC(=S)N(C)C1 [Thione, 3,5-dimethyl-1,3,5-thiadiazinane-2-thione]
[1]
  control of SRB in frac pond water (summary in words): much more effective at inhibiting SRB and AB growth in frac water than the Glut and THPS treatments; also recorded: exceptional control over both the short and long term for SRB through 3 substantial challenges
[2]
  control of AB in frac pond water (summary in words): much more effective at inhibiting SRB and AB growth in frac water than the Glut and THPS treatments

— patent publication US7786054B2, “Biocide for well stimulation and treatment fluids” (Kemira Chemicals, Inc., priority 2006, dated 2010)
